In patent US20170159129A1, “METHODS FOR DETECTING TELOMERE MAINTENANCE MECHANISMS” (priority 2015, published 2017):

System: ALT+ cell lines U2OS, Saos-2 and G-292
Test: Flow-FISH G to C ratio assay for inhibition of ALT activity in ALT+ cell lines
Format: cell-based
Settings: ALT+ cell lines incubated with 3 mM HU for 48 hours; untreated ALT+ lines above 0.8; ratio below 0.8 indicates a decrease in ALT activity
Description: The present disclosure is directed to a novel improvement of flow-FISH that has been adapted for quantifying ALT activity in a cell. Briefly, cells to be analyzed are first mixed with an internal standard for telomeric DNA content. In one embodiment, the 1301 cell line, a T-cell leukemia cell line with long homogeneous telomeres is used. In other embodiments, flow cytometry microbeads with telomeric oligonucleotides can also be used to provide a standard. […] In some embodiments, the labels have the same fluorescence and stability characteristics (e.g. FITC). In other embodiments, the labels for the two probes may be different and have different fluorescence and stability characteristics. […] After incubation, cells are washed in flow cytometry staining buffer and then analyzed by flow cytometry.
Relative C-strand content and relative G-strand content of the sample cells is determined, and a ratio of G content to C content calculated. First, the mean fluorescence of the probes is measured for both sample cells and standard. […] The fluorescent marker in the standard allows for identification of the internal standard and separation of its Tel G and Tel C probe fluorescence. […]

Structure (SMILES): NC(=O)NO [hydroxyurea]
- G to C ratio (relative telomeric G content to C content, relative to 1301 cell standard): below 0.8
